Reference: publication PMC6778101 (Nature Communications, 2019)
Where two headings read alike, the source gives them in different places. Ends that are not written are not given here.

How the values were obtained:
Format in all cases: cell-based, Escherichia coli
E. coli K-12 BW25113 [1] = assay: microbe, parasite or virus in culture
Description: Unless otherwise indicated, Minimal Salt (MS) medium was used in all experiments, including the laboratory evolution experiments. In line with previous, methodologically relevant laboratory evolution studies, the physical conditions (including the medium) were the same during the course of laboratory evolution and all forthcoming assays on the resulting resistant lines (e.g. MIC measurements). We previously optimized this medium for studying AMPs (1 g L^−1 (NH4)2SO4, 3 g L^−1 KH2PO4 and 7 g L^−1 K2HPO4 supplemented with 0.1 mM MgSO4, 0.54 µg mL^−1 FeCl3, 1 µg mL^−1 thiamine hydrochloride, 0.2% Casamino acids and 0.2% glucose)[19]. This medium is highly controlled and provides a reproducible environment for experimental evolution experiments. All components were obtained from Sigma-Aldrich.
MICs were determined using a standard serial broth dilution technique. Briefly, 11-step serial dilutions were prepared in 96-well microtiter plates with three replicates per strain and antimicrobial compound. Each experiment was repeated at least twice. 5 × 10^5 cells/mL were inoculated into each well, and the plates were incubated at 30 °C in case of E. coli K-12 BW25113, and its antibiotic and AMP-adapted lines, or 37 °C in case of the other bacterial species. […] Cell growth was monitored by measuring the optical density (OD600 value, Biotek Synergy 2 microplate reader was used for this purpose). […] Relative MIC was calculated as follows: MICrelative = MICevolved/MICcontrol.

[2] = system: E. coli K-12 BW25113 carrying ASKA plasmids; assay: microbe, parasite or virus in culture; settings: MS medium + 10 µg mL−1 CHL + 500 µM IPTG, 5 × 10^5 cells, 16–18 h, 37 °C; for MIC: Escherichia coli
Description: Bacterial gene amplification generates extensive genetic variation that can provide drug resistance[37],[38]. As gene amplification events tend to be genetically unstable and reduce bacterial fitness, they are transient in nature. Using the ASKA library, which comprises each E. coli ORF cloned into an expression vector[40], we have conducted a global survey to evaluate whether artificially amplified genes provide resistance to any of the 14 AMPs and 11 antibiotics tested. As chloramphenicol (CHL) was used as a selection marker for the ASKA plasmid, this antibiotic was not tested in this screen. E. coli K-12 BW25113 cells were transformed with the pooled plasmids of the ASKA library, and the genetically mixed populations were exposed to increasing levels of AMP or antibiotic stresses, respectively. In all cases, the employed AMP or antibiotic dosages were above the MIC of the wild type. For each drug, we identified the MIC provided in the pooled ASKA plasmid library, and compared it to the MIC of the wild-type strain carrying the empty ASKA plasmid.
The ASKA library (a complete set of E. coli K-12 ORF archive) includes every E. coli ORF cloned into an expression vector (pCA24N)[65]. Prior to screening, the ASKA plasmid collection was pooled and transformed into E. coli K-12 BW25113 strain[66]. The plasmid pool was created by pooling an equal aliquot of cells, each carrying different members of the ASKA library, followed by plasmid miniprep. Next, the plasmid pool was electroporated into E. coli K-12 BW25113 competent cells. […] For the MICs measurements 500 000 cells were inoculated in each well which represents ~100 times coverage of each library member. […] Prior to the measurements the cell population containing the pooled overexpression library or the control strain containing the empty vector were grown in three replicates in LB medium supplemented with 20 µg/mL CHL. As the culture reached high density (i.e., OD600 > 0.8), expression of the plasmid was induced by 50 µM IPTG for 1 h. Following induction, 5 × 10^5 bacterial cells were inoculated in three replicates into each well of the 96-well plate and incubated for 16–18 h at 37 °C. Following incubation the MIC values were determined by measuring optical densities in a plate reader (Biotek Synergy).

E. coli K-12 BW25113 [3] = assay: Laboratory evolution of resistance, MIC fold change of adapted lines; settings: ~120 generations under increasing drug concentration
Description: Our first goal was to study resistance evolution against a set of AMPs and antibiotics. We have followed established protocols with minor modifications to evolve bacterial populations under controlled laboratory conditions[19],[20]. The applied protocol aims to maximize the level of drug resistance in the evolving populations achieved during a fixed time period. We have initiated a laboratory evolution experiment, starting with a single clone of Escherichia coli K-12 BW25113 (abbreviated as E. coli K-12 BW25113). Parallel evolving populations were exposed to increasing concentrations of one of 14 AMPs (Supplementary Table 1). Peptides were chosen based on the following criteria: diverse sources (synthetic/natural), different putative mechanisms of action, structural diversity, and clinical relevance. Another set of populations were exposed to one of 12 clinically relevant antibiotics (Supplementary Table 2), using the same protocol. Accordingly, we have propagated 10 independent populations in the presence of each AMP or antibiotic for ∼120 generations. We isolated a single, representative clone from each population, resulting in 140 AMP-adapted lines and 120 antibiotic-adapted lines. Throughout the paper, we compare the level of resistance in the evolved lines to the corresponding wild-type strain by measuring changes in the drugs’ minimum inhibitory concentrations (MIC).
The evolutionary protocol was designed to avoid population extinction and to ensure that populations with the highest level of resistance were propagated further. Starting with a subinhibitory drug concentration (Supplementary Data 8), resulting in ~50% growth inhibition, 10 parallel populations per drug were allowed to grow in Minimal Salts medium for 72 h and 300 r.p.m. E. coli K-12 BW25113 and E. coli mutD5 populations were incubated at 30 °C, while E. coli ATCC 25922, S. enterica LT2, K. pneumonia ATCC 10031, and A. baumannii ATCC 17978 were incubated at 37 °C. […] Prior to each transfer, cell growth was monitored by measuring the optical density at 600 nm (OD600 value, Biotek Synergy 2 microplate reader). Only populations with the highest drug concentration (and reaching OD600 > 0.2) were selected for further evolution. A chess-board layout was used on the plate to monitor potential cross-contamination events. […] E. coli mutD5 was adapted to TPII, also in 10 parallel evolving populations.
MICs were determined using a standard serial broth dilution technique. Briefly, 11-step serial dilutions were prepared in 96-well microtiter plates with three replicates per strain and antimicrobial compound. Each experiment was repeated at least twice. 5 × 10^5 cells/mL were inoculated into each well, and the plates were incubated at 30 °C in case of E. coli K-12 BW25113, and its antibiotic and AMP-adapted lines, or 37 °C in case of the other bacterial species. Plates were shaken at 300 r.p.m. during incubation for 24 and 18 h, respectively. Cell growth was monitored by measuring the optical density (OD600 value, Biotek Synergy 2 microplate reader was used for this purpose). […] Relative MIC was calculated as follows: MICrelative = MICevolved/MICcontrol.

[4] = Escherichia coli, BW25113, 24 h, read-out: MIC
[5] = BW25113, Replicate 1, read-out: MIC value of E. coli K-12 BW25113 carrying the empty plasmid of the ASKA library
[6] = BW25113, Replicate 1, read-out: MIC value of E. coli K-12 BW25113 carrying the pooled plasmids of the ASKA library
[7] = BW25113, Replicate 2, read-out: MIC value of E. coli K-12 BW25113 carrying the empty plasmid of the ASKA library
[8] = BW25113, Replicate 2, read-out: MIC value of E. coli K-12 BW25113 carrying the pooled plasmids of the ASKA library
[9] = BW25113, Replicate 3, read-out: MIC value of E. coli K-12 BW25113 carrying the empty plasmid of the ASKA library
[10] = BW25113, Replicate 3, read-out: MIC value of E. coli K-12 BW25113 carrying the pooled plasmids of the ASKA library
[11] = starting wild-type strain of the evolution experiment, broth dilution, MS medium, 5 × 10^5 cells/mL, 30 °C, 24 h, MIC = OD600 < 0.05

Compound | MIC (E. coli K-12 BW25113 [1]; [4]) [µg/mL] | MIC [2, 5] [µg/mL] | MIC [2, 6] [µg/mL] | MIC [2, 7] [µg/mL] | MIC [2, 8] [µg/mL] | MIC [2, 9] [µg/mL] | MIC [2, 10] [µg/mL] | MIC (E. coli K-12 BW25113 [1]; Escherichia coli, BW25113, 24 h) [µg/mL] | MIC (E. coli K-12 BW25113 [1]; [11]) [µg/mL] | MIC value of E. coli K-12 BW25113 carrying the empty plasmid of the ASKA library ([2]; Replicate 1) [µg/mL] | MIC value of E. coli K-12 BW25113 carrying the pooled plasmids of the ASKA library ([2]; Replicate 1) [µg/mL] | MIC value of E. coli K-12 BW25113 carrying the empty plasmid of the ASKA library ([2]; Replicate 2) [µg/mL] | MIC value of E. coli K-12 BW25113 carrying the pooled plasmids of the ASKA library ([2]; Replicate 2) [µg/mL] | MIC value of E. coli K-12 BW25113 carrying the empty plasmid of the ASKA library ([2]; Replicate 3) [µg/mL] | MIC value of E. coli K-12 BW25113 carrying the pooled plasmids of the ASKA library ([2]; Replicate 3) [µg/mL] | resistance in evolved lines after laboratory evolution (in words) (E. coli K-12 BW25113 [3])
C[C@H]1c2cccc(O)c2C(=O)C2=C(O)[C@]3(O)C(=O)C(C(N)=O)=C(O)[C@@H](N(C)C)[C@@H]3[C@@H](O)[C@@H]21 [DOX, Doxycycline] | 1.5 | 0.56 | 1.59 | 0.43 | 1.59 | 0.56 | 1.59 |  |  |  |  |  |  |  |  | 
CC[C@H]1OC(=O)[C@H](C)[C@@H](O[C@H]2C[C@@](C)(OC)[C@@H](O)[C@H](C)O2)[C@H](C)[C@@H](O[C@@H]2O[C@H](C)C[C@H](N(C)C)[C@H]2O)[C@](C)(O)C[C@@H](C)C(=O)[C@H](C)[C@@H](O)[C@]1(C)O [ERY, Erythromycin] |  | 11 | 18.6 | 14.3 | 24.1 | 14.3 | 24.1 |  |  |  |  |  |  |  |  | 
CO[C@@]1(NC(=O)Cc2cccs2)C(=O)N2C(C(=O)O)=C(COC(N)=O)CS[C@@H]21 [FOX, Cefoxitin] | 4.9 | 6.07 | 69.2 | 6.07 | 69.2 | 6.07 | 69.2 |  |  |  |  |  |  |  |  | 
CCn1cc(C(=O)O)c(=O)c2ccc(C)nc21 [NAL, Nalidixic acid] | 6.35 | 0.37 | 1.05 | 0.37 | 1.05 | 0.37 | 1.05 |  |  |  |  |  |  |  |  | 
O=C1CN(/N=C/c2ccc([N+](=O)[O-])o2)C(=O)N1 [NIT, Nitrofurantoin] |  | 6.53 | 14.7 | 6.53 | 14.7 | 6.53 | 6.53 | 35 |  |  |  |  |  |  |  | 
CN(C)[C@@H]1C(O)=C(C(N)=O)C(=O)[C@@]2(O)C(O)=C3C(=O)c4c(O)cccc4[C@@](C)(O)[C@H]3C[C@@H]12 [TET, Tetracycline] | 1.2 | 0.62 | 1.29 | 0.62 | 1.07 | 0.62 | 1.07 |  |  |  |  |  |  |  |  | 
FLGKVFKLASKVFKAVFGKV [R8] |  |  |  |  |  |  |  |  | 20 | 11.57 | 11.57 | 11.57 | 11.57 | 11.57 | 9.46 | 
GLRKRLRKFRNKIKEKLKKIGQKIQGFVPKLAPRTDY [CAP18, rabbit CAP18] |  |  |  |  |  |  |  |  | 120 | 24.11 | 24.11 | 20.09 | 24.11 | 24.11 | 24.11 | 
RRRPRPPYLPRPRPPPFFPPRLPPRIPPGFPPRFPPRFP [PR39] |  |  |  |  |  |  |  |  | 5 | 5.79 | 5.79 | 5.79 | 5.79 | 5.79 | 5.79 | 
TSSPPAAVVVRRRRRRRRRRRRRRRRRRR [PROA, protamine, cationic AMP purchased from Sigma-Aldrich] |  |  |  |  |  |  |  |  | 310 | 126.51 | 126.51 | 126.51 | 36.15 | 442.78 | 442.78 | isolated resistant mutants
